In US11919932B2, “HMGN partial peptide and cancer therapy using the same” (The University of Tokyo, priority 2018, dated 2024):

Legend:
[1] = test system: Colon26 large intestine cancer cells; assay: Colon26 tumor-bearing mice, HMGN peptide in combination with anti-PD-L1 antibody, tumor volume; assay type: in vivo, mouse; conditions: for anti-tumor effect compared with Pep1 (FIG. 11) / anti-tumor effect, tumor volume 24 days after tumor implantation (FIG. 11): same molar dose as 300 ng of Pep1; for anti-tumor effect, tumor volume 24 days after tumor implantation (FIG. 11): vs anti-PD-L1 antibody single administration group; for tumor growth (time-dependent change in tumor volume, FIG. 7): Pep1 60 and 300 ng/mouse, other peptides three equimolar doses, common ratio 5 (Pep1core 8 to 200 ng/mouse); for growth of Colon26 solid tumor, tumor volume 26 days after tumor cell implantation (FIG. 5, FIG. 6): peptide equimolar to Pep1 300 ng/mouse (two doses, common ratio 5, for Pep1ΔN2 and Pep1 mutant), vs anti-PD-L1 alone
From the text: (§1) Seven-week-old male BALB/c mice were used in groups of 8 mice, and Colon26 large intestine cancer cells were subcutaneously transplanted into the right flank at 2×10^5 cells/mouse.
(§2) An anti-mouse PD-L1 antibody (clone 10F.9G2) and an anti-mouse CD4 depleting antibody (clone GK1.5) were purchased from BioXcell.
(§3) The HMGN peptide was intraperitoneally administered at a dose described below four times in total at 9, 14, 17 and 20 days after tumor cell implantation. The anti-mouse PD-L1 antibody was intraperitoneally administered at 200 μg/mouse four times in total at 4, 8, 14 and 18 days after tumor cell implantation. The anti-mouse CD4 antibody was intraperitoneally administered at a dose of 200 μg/mouse twice in total at 5 and 9 days after tumor cell implantation. The long diameter and short diameter of the solid tumor were measured every 3 to 4 days, and tumor volume was calculated by the following calculation formula. Tumor volume (mm^3)=(Long diameter; mm)×(Short diameter; mm)^2×0.5236

[2] = test system: Colon26 large intestine cancer cells; assay: Colon26 tumor-bearing mice, HMGN peptide in combination with anti-CD4 antibody, tumor volume; assay type: in vivo; conditions: Pep1 800 ng/mouse + anti-CD4 antibody 200 μg/mouse
From the text: as §1, §2, §3
The partial peptide of human HMGN1, Pep1 (800 ng/mouse), was administered to Colon26 tumor-bearing mice in combination with an anti-CD4 antibody (200 μg/mouse), and the anti-tumor effect was investigated.

[3] = test system: Colon26 large intestine cancer cells; assay: Colon26 tumor-bearing mice, HMGN peptide single administration, tumor volume; assay type: in vivo, mouse; conditions: Pep1 alone; vs control group
Description: as §1, §3
A partial fragment (human HMGN1 NBD peptide 1; Pep1, SEQ ID NO: 3) of human HMGN1 (SEQ ID NO: 17) corresponding to mPep1 was prepared and administered to Colon26 tumor-bearing mice alone or in combination with an anti-PD-L1 antibody (200 μg/mouse), and the anti-tumor effect was investigated.

[4] = + anti-PD-L1 antibody 200 μg/mouse

HMGN5 NBD-peptide (GQGDMRQEPKRRSARLSAMLVPVTPEVKPKRTSSSRKMKTKSD; Human HMGN5 NBD-peptide (N5Pep)) [PepN5, partial region containing NBD of human HMGN5]
anti-tumor effect compared with Pep1 (FIG. 11) ([1]; + anti-PD-L1 antibody): at the same level as Pep1
anti-tumor effect, tumor volume 24 days after tumor implantation (FIG. 11) ([1]; + anti-PD-L1 antibody): significant anti-tumor effects

Human HMGN1 NBD-peptide 1 (SSAEGAAKEEPKRRSARLSAKPPAKVEAKPKKAAAKD; Human HMGN1 NBD-peptide 1 (Pep1))
anti-tumor effect (FIG. 3) ([1]; 3 ng/mouse and 30 ng/mouse, + anti-PD-L1 antibody): effective
tumor growth (time-dependent change in tumor volume, FIG. 7) [1, 4]: synergistically suppressed tumor growth
tumor growth (FIG. 3, FIG. 4) ([1]; Pep1 + anti-PD-L1 antibody 200 μg/mouse): synergistically suppressed tumor growth
potency difference in the anti-tumor action between PepO and Pep1 ([1]; both + anti-PD-L1 antibody): ≥ 300 times
growth of Colon26 solid tumor, tumor volume 26 days after tumor cell implantation (FIG. 5, FIG. 6) [1, 4]: significantly suppressed
Colon26 solid tumor growth (FIG. 12, FIG. 13; tumor volume 24 days after implantation) [2]: synergistically suppressed Colon26 solid tumor growth
growth of Colon26 solid tumor, tumor volume 23 days after tumor implantation (FIG. 3) [3]: significantly suppressed growth of Colon26 solid tumor in a dose-dependent manner

Human HMGN1 NBD-peptide 1 core (EPKRRSARLSAKPPAKVEAKPKK; Human HMGN1 NBD-peptide1 core (Pep1core)) [10th to 32nd residues of Pep1]
tumor growth (time-dependent change in tumor volume, FIG. 7) [1, 4]: suppressed in a dose-dependent manner
tumor volume 27 days after implantation, difference from anti-PD-L1 antibody single administration group (FIG. 8) ([1]; doses of 40 and 200 ng/mouse, + anti-PD-L1 antibody): significant difference was observed

Human HMGN1 NBD-peptide 1 mutant (SAEGAAKEEPKDDSADLSAKPPAKVEAKPKKAAAKD; Human HMGN1 NBD-peptide 1 mutant (Pep1 mutant)) [R→D mutant of Pep1, N-terminal 1 residue removed]
growth of Colon26 solid tumor, tumor volume 26 days after tumor cell implantation (FIG. 5, FIG. 6) [1, 4]: same anti-tumor action as Pep1

Human HMGN1 NBD-peptide 1 Δ C1 (SSAEGAAKEEPKRRSARLSAKPPAKVEAKPKK; Human HMGN1 NBD-peptide 1 delta-C1 (Pep1 delta-C1)) [Pep1ΔC1, C-terminal 5 residues of Pep1 removed]
complete regression of solid tumors ([1]; dose of 53 ng, + anti-PD-L1 antibody): 1 case
complete regression of solid tumors ([1]; doses of 11 and 265 ng/mouse, + anti-PD-L1 antibody): 3 cases out of 8 cases
growth of Colon26 solid tumor, tumor volume 26 days after tumor cell implantation (FIG. 5, FIG. 6) [1, 4]: significantly suppressed

Human HMGN1 NBD-peptide 1 Δ C2 (SSAEGAAKEEPKRRSARLSAKPPAKVEA; Human HMGN1 NBD-peptide 1 delta-C2 (Pep1 delta-C2)) [Pep1ΔC2, C-terminal 9 residues of Pep1 removed]
growth of Colon26 solid tumor, tumor volume 26 days after tumor cell implantation (FIG. 5, FIG. 6) [1, 4]: ineffective

Human HMGN1 NBD-peptide 1 Δ C (SSAEGAAKEEPKRRSARLSAKPPA; Human HMGN1 NBD-peptide 1 delta-C (Pep1 delta-C)) [Pep1 ΔC, C-terminal 13 residues of Pep1 removed]
growth of Colon26 solid tumor, tumor volume 26 days after tumor cell implantation (FIG. 5, FIG. 6) [1, 4]: anti-tumor effect of the peptide was lost

Human HMGN1 NBD-peptide 1 Δ N1 (AAKEEPKRRSARLSAKPPAKVEAKPKKAAAKD; Human HMGN1 NBD-peptide 1 delta-N1 (Pep1 delta-N1)) [Pep1ΔN1, N-terminal 5 residues of Pep1 removed]
Colon26 solid tumor growth (FIG. 5, FIG. 6) ([1]; doses of 53 and 267 ng/mouse, + anti-PD-L1 antibody 200 μg/mouse): significantly suppressed

Human HMGN1 NBD-peptide 1 Δ N2 (EPKRRSARLSAKPPAKVEAKPKKAAAKD; Human HMGN1 NBD-peptide 1 delta-N2 (Pep1 delta-N2)) [Pep1ΔN2, N-terminal 9 residues of Pep1 removed]
tumor growth (time-dependent change in tumor volume, FIG. 7) [1, 4]: synergistic effect
solid tumors completely regressed ([1]; dose of 9.4 ng/mouse, + anti-PD-L1 antibody): 4 cases out of 8 cases
growth of Colon26 solid tumor, tumor volume 26 days after tumor cell implantation (FIG. 5, FIG. 6) [1, 4]: similarly suppressed solid tumors

Human HMGN1 NBD-peptide 1 Δ N3 (SARLSAKPPAKVEAKPKKAAAKD; Human HMGN1 NBD-peptide 1 delta-N3 (Pep1 delta-N3)) [Pep1ΔN3, N-terminal 14 residues of Pep1 removed]
growth of Colon26 solid tumor, tumor volume 26 days after tumor cell implantation (FIG. 5, FIG. 6) [1, 4]: ineffective

Human HMGN1 peptide O (KEEPKRRSARLSAKPPAKVEAKPKKAAAKDKSSDKK; Human HMGN1 peptide O (PepO)) [known HMGN peptide of U.S. Pat. No. 8,227,417, reference compound]
complete regression of solid tumors ([1]; 954 ng/mouse, + anti-PD-L1 antibody 200 μg/mouse): 3 mice
anti-tumor effect, tumor volume 24 days after tumor implantation (FIG. 9, FIG. 10) ([1]; dose of 318 ng/mouse (equimolar to Pep1 300 ng/mouse), + anti-PD-L1 antibody 200 μg/mouse): no anti-tumor effect
tumor growth, tumor volume 24 days after tumor implantation (FIG. 9, FIG. 10) ([1]; triple dose of 954 ng/mouse, + anti-PD-L1 antibody 200 μg/mouse): significantly suppressed tumor growth

Human HMGN2 NBD-peptide [PepN2]
anti-tumor effect compared with Pep1 (FIG. 11) ([1]; + anti-PD-L1 antibody): at the same level as Pep1
anti-tumor effect, tumor volume 24 days after tumor implantation (FIG. 11) ([1]; + anti-PD-L1 antibody): significant anti-tumor effects

Human HMGN3 NBD-peptide [PepN3]
anti-tumor effect, tumor volume 24 days after tumor implantation (FIG. 11) ([1]; + anti-PD-L1 antibody): no anti-tumor effect

Human HMGN4 NBD-peptide [PepN4]
anti-tumor effect compared with Pep1 (FIG. 11) ([1]; + anti-PD-L1 antibody): at the same level as Pep1
anti-tumor effect, tumor volume 24 days after tumor implantation (FIG. 11) ([1]; + anti-PD-L1 antibody): significant anti-tumor effects

mouse HMGN1 NBD-peptide 2 (VQIKGKRGAKGKQADVADQQTTELPAENGETENQSPASEE; mouse HMGN1 NBD-peptide 2 (mPep2)) [region at the C-terminal side of mouse HMGN1 NBD]
tumor volume 24 days after Colon26 tumor cell implantation (FIG. 2) ([1]; doses of 30, 300 ng/mouse (mPep2 same molar number), + anti-PD-L1 antibody, vs control group): ineffective
tumor growth (time-dependent change in tumor volume, FIG. 1) ([1]; mPep1 30 or 300 ng/mouse, mPep2 33 or 330 ng/mouse, i.p. four times, + anti-PD-L1 antibody 200 μg/mouse): no combined effect
